# Test system: subjects with active autoantibody-positive SLE
# Assay: Phase 2b study in SLE: SLE Responder Index 4 (SRI-4) response at week 24
# Assay type: in vivo, human
# Conditions: for Percentage of Subjects Who Achieve SRI(4) at Week 24, n/m (%) / SRI(4) at Week 24, Stratified Difference (%) (95% CI), Iberdomide - Placebo: ITT; for SRI-4 treatment effect versus placebo: week 24
# Experimental: The pharmacokinetics, pharmacodynamics (PD), efficacy, and safety of oral iberdomide ((S)-3-[4-({4-[(morpholin-4-yl)methyl]phenyl}methoxy)-1-oxo-1,3-dihydro-2H-isoindol-2-yl]piperidine-2,6-dione-hydrogen chloride (1/1)) were evaluated in a phase 2b study in subjects with active autoantibody-positive SLE.
# Adult SLE patients (N=288) with a ≥6-month history of SLE and SLE Disease Activity Index (SLEDAI 2K) ≥6 were randomized to placebo (n=83) or iberdomide 0.15 mg QD (n=42), 0.3 mg QD (n=82), or 0.45 mg QD (n=81). Clinical response was determined by the SLE Responder Index 4 (SRI-4) at week 24 for all patients and within pre-specified biomarker-enriched subsets based on expression of Ikaros, Aiolos, the Type 1 IFN signature (IFI27, IFI44, IFI44L, RSAD2), and other gene modules measured from fingerstick blood collected at baseline (Modular Immune Profile Test, DxTerity Diagnostics, Inc.). The primary objective of the study was to evaluate the clinical efficacy of 3 doses of iberdomide (0.45 mg once per day [QD], 0.30 mg QD, or 0.15 mg QD) compared to placebo, for the treatment of active SLE using the SLE Responder Index at Week 24.
# [1] = B cell: High at baseline, 0.15 mg QD
# [2] = B cell: High at baseline, 0.30 mg QD
# [3] = B cell: High at baseline, 0.45 mg QD
# [4] = IKZF1: High at baseline, 0.15 mg QD
# [5] = IKZF1: High at baseline, 0.30 mg QD
# [6] = IKZF1: High at baseline, 0.45 mg QD
# [7] = IKZF1 Status of SNP rs4917014: 1 or 2 Copies, 0.15 mg QD
# [8] = IKZF1 Status of SNP rs4917014: 1 or 2 Copies, 0.30 mg QD
# [9] = IKZF1 Status of SNP rs4917014: 1 or 2 Copies, 0.45 mg QD
# [10] = IKZF3 (Aiolos): High at baseline, 0.45 mg QD
# [11] = Ikaros IFN: High at baseline, 0.15 mg QD
# [12] = Ikaros IFN: High at baseline, 0.30 mg QD
# [13] = Ikaros IFN: High at baseline, 0.45 mg QD
structure (smiles),measurement,setting,value
"O=C1CC[C@H](N2Cc3c(OCc4ccc(CN5CCOCC5)cc4)cccc3C2=O)C(=O)N1 [iberdomide, (S)-3-[4-({4-[(morpholin-4-yl)methyl]phenyl}methoxy)-1-oxo-1,3-dihydro-2H-isoindol-2-yl]piperidine-2,6-dione-hydrogen chloride (1/1)]",SRI(4) stratified difference from placebo,"0 copies of IKZF1 rs4917014 protective minor allele (G), 0.45 mg QD",6.1%
same,estimated SRI-4 response rate,"Aiolos (IKZF3) gene expression cutoff −0.49, 0.45 mg dose, prevalence vs. cutoff analysis",60-65%
same,"Percentage of Subjects Who Achieve SRI(4) at Week 24, n/m (%)",[1],8/24 (33.3) %
same,"SRI(4) at Week 24, Stratified Difference (%) (95% CI), Iberdomide - Placebo",[1],"−0.7 (−22.56, 22.94) %"
same,"Percentage of Subjects Who Achieve SRI(4) at Week 24, n/m (%)",[2],19/49 (38.8) %
same,"SRI(4) at Week 24, Stratified Difference (%) (95% CI), Iberdomide - Placebo",[2],"4.5 (−15.06, 23.69) %"
same,"Percentage of Subjects Who Achieve SRI(4) at Week 24, n/m (%)",[3],30/54 (55.6) %
same,"SRI(4) at Week 24, Stratified Difference (%) (95% CI), Iberdomide - Placebo",[3],"20.4 (0.74, 38.01) %"
same,SRI-4 treatment effect versus placebo,"IFN High Aiolos High double-positive population, high dose 0.45 mg",29.8%
same,SRI-4 treatment effect versus placebo,"IFN High Aiolos High double-positive population, low dose 0.15 mg",29.8%
same,SRI-4 treatment effect versus placebo,"IFN High Aiolos Low population, low dose 0.15 mg",26.8%
same,SRI-4 treatment effect versus placebo,"IFN Low Aiolos High subset, high dose 0.45 mg",35.0%
same,"Percentage of Subjects Who Achieve SRI(4) at Week 24, n/m (%)",[4],12/28 (42.9) %
same,"SRI(4) at Week 24, Stratified Difference (%) (95% CI), Iberdomide - Placebo",[4],"7.0 (−14.36, 28.68) %"
same,"Percentage of Subjects Who Achieve SRI(4) at Week 24, n/m (%)",[5],21/53 (39.6) %
same,"SRI(4) at Week 24, Stratified Difference (%) (95% CI), Iberdomide - Placebo",[5],"2.4 (−15.87, 20.58) %"
same,"Percentage of Subjects Who Achieve SRI(4) at Week 24, n/m (%)",[6],35/64 (54.7) %
same,"SRI(4) at Week 24, Stratified Difference (%) (95% CI), Iberdomide - Placebo",[6],"16.1 (−1.76, 32.65) %"
same,"Percentage of Subjects Who Achieve SRI(4) at Week 24, n/m (%)",[7],11/21 (52.4) %
same,"SRI(4) at Week 24, Stratified Difference (%) (95% CI), Iberdomide - Placebo",[7],"23.0 (−2.36, 46.07) %"
same,"Percentage of Subjects Who Achieve SRI(4) at Week 24, n/m (%)",[8],18/46 (39.1) %
same,"SRI(4) at Week 24, Stratified Difference (%) (95% CI), Iberdomide - Placebo",[8],"7.9 (−12.18, 26.84) %"
same,"Percentage of Subjects Who Achieve SRI(4) at Week 24, n/m (%)",[9],20/36 (55.6) %
same,"SRI(4) at Week 24, Stratified Difference (%) (95% CI), Iberdomide - Placebo",[9],21.3%
same,"Percentage of Subjects Who Achieve SRI(4) at Week 24, n/m (%)","IKZF3 (Aiolos): High at baseline, 0.15 mg QD",5/14 (35.7) %
same,"SRI(4) at Week 24, Stratified Difference (%) (95% CI), Iberdomide - Placebo","IKZF3 (Aiolos): High at baseline, 0.15 mg QD, listed as Iberdomide","2.2 (−24.82, 31.94) %"
same,"Percentage of Subjects Who Achieve SRI(4) at Week 24, n/m (%)","IKZF3 (Aiolos): High at baseline, 0.30 mg QD",9/32 (28.1) %
same,"SRI(4) at Week 24, Stratified Difference (%) (95% CI), Iberdomide - Placebo","IKZF3 (Aiolos): High at baseline, 0.30 mg QD, listed as Iberdomide","−7.1 (−31.13, 16.94) %"
same,"Percentage of Subjects Who Achieve SRI(4) at Week 24, n/m (%)",[10],23/36 (63.9) %
same,"SRI(4) at Week 24, Stratified Difference (%) (95% CI), Iberdomide - Placebo",[10],32.9%
same,"SRI(4) at Week 24, Stratified Difference (%) (95% CI), Iberdomide - Placebo","IKZF3 (Aiolos): High at baseline, 0.45 mg QD, listed as Iberdomide","32.9 (7.74, 52.90) %"
same,"Percentage of Subjects Who Achieve SRI(4) at Week 24, n/m (%)",[11],16/30 (53.3) %
same,"SRI(4) at Week 24, Stratified Difference (%) (95% CI), Iberdomide - Placebo",[11],"18.6 (−3.69, 39.05) %"
same,"Percentage of Subjects Who Achieve SRI(4) at Week 24, n/m (%)",[12],21/49 (42.9) %
same,"SRI(4) at Week 24, Stratified Difference (%) (95% CI), Iberdomide - Placebo",[12],"8.9 (−10.47, 27.36) %"
same,"Percentage of Subjects Who Achieve SRI(4) at Week 24, n/m (%)",[13],36/62 (58.1) %
same,"SRI(4) at Week 24, Stratified Difference (%) (95% CI), Iberdomide - Placebo",[13],24.3%
same,"SRI(4) at Week 24, Stratified Difference (%) (95% CI), Iberdomide - Placebo","Ikaros IFN: High at baseline, 0.45 mg QD, listed as Iberdomide","24.3 (5.45, 40.76) %"
same,"SRI(4) at Week 24, Stratified Difference (%) (95% CI), Iberdomide - Placebo","Overall Subjects, 0.15 mg QD",11.4%
same,"Percentage of Subjects Who Achieve SRI(4) at Week 24, n/m (%)","Overall Subjects, 0.15 mg QD, nonresponder imputation",20/42 (47.6) %
same,"SRI(4) at Week 24, Stratified Difference (%) (95% CI), Iberdomide - Placebo","Overall Subjects, 0.15 mg QD, listed as Iberdomide","11.4 (−6.57, 29.00) %"
same,"SRI(4) at Week 24, Stratified Difference (%) (95% CI), Iberdomide - Placebo","Overall Subjects, 0.30 mg QD",5.0%
same,"Percentage of Subjects Who Achieve SRI(4) at Week 24, n/m (%)","Overall Subjects, 0.30 mg QD, nonresponder imputation",33/82 (40.2) %
same,"SRI(4) at Week 24, Stratified Difference (%) (95% CI), Iberdomide - Placebo","Overall Subjects, 0.30 mg QD, listed as Iberdomide","5.0 (−9.77, 19.48) %"
same,"SRI(4) at Week 24, Stratified Difference (%) (95% CI), Iberdomide - Placebo","Overall Subjects, 0.45 mg QD",19.4%
same,"Percentage of Subjects Who Achieve SRI(4) at Week 24, n/m (%)","Overall Subjects, 0.45 mg QD, nonresponder imputation",54.3%

# Reference: patent US12064437B2, “Methods for treating systemic lupus erythematosus and the use of biomarkers as a predictor of clinical sensitivity to therapies” (CELGENE CORPORATION, priority 2020, dated 2024)
